PMC6099635, “New Records of Potent In-Vitro Antidiabetic Properties of Dalbergia tonkinensis Heartwood and the Bioactivity-Guided Isolation of Active Compounds” (Molecules : A Journal of Synthetic Chemistry and Natural …, 2018)

What was measured:
Test in all cases: colorimetric pNPG hydrolysis, […] nm
[1] = molecular target: T1, Rat α-glucosidase; assay type: biochemical; conditions: pNPG substrate; 0.1 M potassium phosphate pH 7; 37 °C; 20 min pre-incubation, 60 min reaction
T1 construct: gene Si; Sigma Aldrich preparation

[2] = molecular target: T2, Saccharomyces cerevisiae (yeast) α-glucosidase; assay type: biochemical; conditions: pNPG substrate; 0.1 M potassium phosphate pH 7; 37 °C; 20 min pre-incubation, 30 min reaction
T2 construct: gene MAL12

[3] = molecular target: T3, Rice α-glucosidase (Type 4); assay type: biochemical, Oryza sativa; conditions: pNPG substrate; 0.1 M potassium phosphate pH 7; 37 °C; 20 min pre-incubation, 30 min reaction
T3 construct: gene Os06g0675700

COc1ccc(-c2coc3cc(O)ccc3c2=O)cc1 [compound 2, formononetin]
Inhibition Expressed as EC50 (mg/mL) / Formononetin [1]: 0.23 ± 0.037 mg/mL | Inhibition Expressed as EC50 (mg/mL) / Formononetin [2]: 0.06 ± 0.002 mg/mL | Inhibition Expressed as EC50 (mg/mL) / Formononetin [3]: 0.98 ± 0.029 mg/mL

C[C@H]1O[C@H](O[C@H]2[C@H](O)[C@@H](O)[C@@H](O[C@H]3[C@H](O)[C@@H](O)C(O)O[C@@H]3CO)O[C@@H]2CO)[C@H](O)[C@@H](O)[C@@H]1N[C@H]1C=C(CO)[C@@H](O)[C@H](O)[C@H]1O (stereo partly drawn) [acarbose, reference compound]
Inhibition Expressed as EC50 (mg/mL) / Acarbose [1]: 0.121 ± 0.001 mg/mL | Inhibition Expressed as EC50 (mg/mL) / Acarbose [2]: 1.321 ± 0.048 mg/mL | Inhibition Expressed as EC50 (mg/mL) / Acarbose [3]: 0.031 ± 0.005 mg/mL

COc1ccc(C2COc3cc(O)ccc3C2=O)c(OC)c1 (stereo not drawn) [compound 1, sativanone]
Inhibition Expressed as EC50 (mg/mL) / Sativanone [1]: 0.37 ± 0.022 mg/mL | Inhibition Expressed as EC50 (mg/mL) / Sativanone [2]: 0.23 ± 0.012 mg/mL | Inhibition Expressed as EC50 (mg/mL) / Sativanone [3]: 0.81 ± 0.023 mg/mL
